Values belong to the molecule of their own block, whether it stands above or below them.
Experiments:
[1] = molecular target: T1, Adenosine receptor A2a (Homo sapiens, UniProt P29274); assay: biochemical
[2] = molecular target: T2, Adenosine receptor A3 (Homo sapiens, UniProt P0DMS8); assay: Displacement of specific [3H]MRE3008-F20 binding at human adenosine A3 receptor expressed in CHO cells.; assay type: cell-based
T2 sequence (P0DMS8 whole entry): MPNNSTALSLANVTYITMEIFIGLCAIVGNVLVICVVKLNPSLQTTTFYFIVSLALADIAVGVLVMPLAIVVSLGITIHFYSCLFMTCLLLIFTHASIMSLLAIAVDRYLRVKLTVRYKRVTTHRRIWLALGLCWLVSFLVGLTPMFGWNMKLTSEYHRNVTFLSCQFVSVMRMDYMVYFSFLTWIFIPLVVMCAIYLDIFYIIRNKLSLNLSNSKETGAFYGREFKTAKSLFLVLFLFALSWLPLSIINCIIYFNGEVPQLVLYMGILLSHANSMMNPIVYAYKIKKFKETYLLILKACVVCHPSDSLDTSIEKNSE

[3] = molecular target: T3, Adenosine receptor A2b (Homo sapiens, UniProt P29275); assay: biochemical
T3 sequence (P29275 whole entry): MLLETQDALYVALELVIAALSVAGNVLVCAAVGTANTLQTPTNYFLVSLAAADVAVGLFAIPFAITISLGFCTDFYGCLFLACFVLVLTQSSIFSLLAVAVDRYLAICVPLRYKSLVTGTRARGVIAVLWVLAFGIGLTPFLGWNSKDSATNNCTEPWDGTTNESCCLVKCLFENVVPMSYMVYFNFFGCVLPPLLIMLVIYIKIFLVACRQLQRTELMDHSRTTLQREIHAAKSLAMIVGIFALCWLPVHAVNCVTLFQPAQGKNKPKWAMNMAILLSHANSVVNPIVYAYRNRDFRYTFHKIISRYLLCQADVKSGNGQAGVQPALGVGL
Description: (§1) Displacement of specific [3H]DPCPX binding at human adenosine A2B receptor expressed in HEK293 cells.

[4] = molecular target: T4, Adenosine receptor A1 (Homo sapiens, UniProt P30542); assay: biochemical
T4 sequence (P30542 whole entry): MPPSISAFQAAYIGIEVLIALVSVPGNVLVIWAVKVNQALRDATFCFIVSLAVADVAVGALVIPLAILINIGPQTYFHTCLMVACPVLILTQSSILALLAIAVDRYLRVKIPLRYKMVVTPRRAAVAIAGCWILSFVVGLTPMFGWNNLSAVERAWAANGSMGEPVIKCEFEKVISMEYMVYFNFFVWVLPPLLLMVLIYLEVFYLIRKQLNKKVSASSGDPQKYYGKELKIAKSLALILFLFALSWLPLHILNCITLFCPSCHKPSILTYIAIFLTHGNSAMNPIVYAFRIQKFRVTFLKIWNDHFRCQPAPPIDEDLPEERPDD
Description: Displacement of specific [3H]DPCPX binding at human Adenosine A1 receptor expressed in CHO cells.

[5] = molecular target: T4, Adenosine receptor A1; assay: Displacement of [3H]-DPCPX from human Adenosine A1 receptor expressed in CHO cells; ranges from 107-181; assay type: cell-based
[6] = molecular target: T1, Adenosine receptor A2a; assay: Displacement of [3H]-SCH- 58261 binding at human Adenosine A2A receptor expressed in HEK293 cells; ranges from 129-152; assay type: cell-based
[7] = molecular target: T3, Adenosine receptor A2b; conditions: hek293
Description: as §1

[8] = molecular target: T1, Adenosine receptor A2a; assay: Displacement of [3H]-SCH- 58261 binding at human Adenosine A2A receptor expressed in HEK293 cells; ranges from 98-144; assay type: cell-based
[9] = molecular target: T4, Adenosine receptor A1; assay: Displacement of [3H]DPCPX from human Adenosine A1 receptor expressed in CHO cells; ranges from 9038-9773; assay type: cell-based
[10] = molecular target: T4, Adenosine receptor A1; assay: Displacement of [3H]DPCPX from human Adenosine A1 receptor expressed in CHO cells; ranges from 1460-2201; assay type: cell-based
[11] = molecular target: T1, Adenosine receptor A2a; assay: Displacement of [3H]-SCH- 58261 from human Adenosine A2A receptor expressed in HEK293 cells; ranges from 4.95-6.08; assay type: cell-based
[12] = molecular target: T4, Adenosine receptor A1; assay: Displacement of [3H]-DPCPX binding at human Adenosine A1 receptor expressed in CHO cells; ranges from 9257-9817; assay type: cell-based
[13] = molecular target: T4, Adenosine receptor A1; assay: Displacement of [3H]DPCPX binding at human Adenosine A1 receptor expressed in CHO cells; ranges from 363-514; assay type: cell-based
[14] = molecular target: T1, Adenosine receptor A2a; assay: biochemical; remark: listed apart in the source
[15] = molecular target: T1, Adenosine receptor A2a; assay: biochemical; remark: listed apart in the source
[16] = molecular target: T4, Adenosine receptor A1; assay: Displacement of [3H]DPCPX from human Adenosine A1 receptor expressed in CHO cells; ranges from 324-420; assay type: cell-based

T1 sequence (P29274 whole entry): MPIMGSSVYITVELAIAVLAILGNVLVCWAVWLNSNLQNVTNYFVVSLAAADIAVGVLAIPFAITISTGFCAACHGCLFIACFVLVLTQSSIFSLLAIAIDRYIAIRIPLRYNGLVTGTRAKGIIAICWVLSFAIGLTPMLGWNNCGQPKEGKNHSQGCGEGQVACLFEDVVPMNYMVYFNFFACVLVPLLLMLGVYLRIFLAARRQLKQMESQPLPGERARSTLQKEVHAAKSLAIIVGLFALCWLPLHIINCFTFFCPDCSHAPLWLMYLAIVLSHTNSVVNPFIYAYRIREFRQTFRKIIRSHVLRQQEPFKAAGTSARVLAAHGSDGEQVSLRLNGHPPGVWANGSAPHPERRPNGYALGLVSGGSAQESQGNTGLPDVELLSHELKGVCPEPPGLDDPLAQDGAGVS

Structure (SMILES): Nc1nc2c(cnn2CCc2ccc(S(N)(=O)=O)cc2)c2nc(-c3ccco3)nn12
- Ki [1]: 1.31 nM
- Ki [2]: > 10000 nM
- Ki [3]: > 10000 nM
- Ki [4]: 2630 nM

Structure (SMILES): Nc1nc2c(cnn2CCc2ccc(S(=O)(=O)N(CCCl)CCCl)cc2)c2nc(-c3ccco3)nn12
- Ki [1]: 0.59 nM
- Ki [2]: > 10000 nM
- Ki [3]: > 10000 nM
- Ki [4]: 5300 nM

Structure (SMILES): Nc1nc2c(cnn2CCCc2ccc3c(c2)OC(C(=O)O)(C(=O)O)O3)c2nc(-c3ccco3)nn12 [listing 1 of 2 here]
- Ki [7]: > 10000 nM
- Ki ([2]; cho): > 10000 nM
- Ki [8]: 120 nM
- Ki [9]: 9400 nM

Structure (SMILES): CCOC(=O)[C@@H]1Oc2ccc(CCCn3ncc4c3nc(N)n3nc(-c5ccco5)nc43)cc2O1
- Ki [2]: > 10000 nM
- Ki [10]: 1790 nM
- Ki [3]: > 10000 nM
- Ki [11]: 5.48 nM

Structure (SMILES): Nc1nc2c(cnn2CCCc2ccc3c(c2)OC(C(=O)O)(C(=O)O)O3)c2nc(-c3ccco3)nn12 [listing 2 of 2 here]
- Ki [2]: > 10000 nM
- Ki [12]: 9530 nM
- Ki [3]: > 10000 nM
- Ki [8]: 120 nM

Structure (SMILES): Nc1nc2c(cnn2CCCc2ccc3c(c2)OC(CO)(CO)O3)c2nc(-c3ccco3)nn12
- Ki [13]: 432 nM
- Ki [2]: > 10000 nM
- Ki [3]: > 10000 nM
- Ki [14]: 0.19 nM

Structure (SMILES): CN1CCN(S(=O)(=O)c2ccc(CCn3ncc4c3nc(N)n3nc(-c5ccco5)nc43)cc2)CC1
- Ki [15]: 3.8 nM
- Ki [2]: > 10000 nM
- Ki [3]: > 10000 nM
- Ki [16]: 369 nM

Second part, the molecule after the results:

- Ki [2]: > 10000 nM
- Ki [5]: 139 nM
- Ki [3]: > 10000 nM
- Ki [6]: 140 nM
Structure (SMILES): Nc1nc2c(cnn2CCCc2ccc(S(=O)(=O)O)cc2)c2nc(-c3ccco3)nn12

- Ki [1]: 1.1 nM
- Ki [2]: > 10000 nM
- Ki [3]: > 10000 nM
- Ki [4]: 558 nM
Structure (SMILES): Nc1nc2c(cnn2CCCc2ccc(N(CCO)CCO)cc2)c2nc(-c3ccco3)nn12

- Ki [1]: 4.4 nM
- Ki [2]: > 10000 nM
- Ki [3]: > 10000 nM
- Ki [4]: 4960 nM
Structure (SMILES): Nc1nc2c(cnn2CCCc2ccc(C(=O)O)cc2)c2nc(-c3ccco3)nn12

- Ki [1]: 55 nM
- Ki [2]: > 10000 nM
- Ki [3]: > 10000 nM
- Ki [4]: 75 nM
Structure (SMILES): N=C(N)c1ccc(CCCn2ncc3c2nc(N)n2nc(-c4ccco4)nc32)cc1

- Ki [1]: 0.22 nM
- Ki [2]: > 10000 nM
- Ki [3]: > 10000 nM
- Ki [4]: 2160 nM
Structure (SMILES): Nc1ccc(CCCn2ncc3c2nc(N)n2nc(-c4ccco4)nc32)cc1

- Ki [1]: 4 nM
- Ki [2]: > 10000 nM
- Ki [3]: > 10000 nM
- Ki [4]: 4490 nM
Structure (SMILES): CCOC(=O)c1ccc(CCCn2ncc3c2nc(N)n2nc(-c4ccco4)nc32)cc1

- Ki [1]: 1.2 nM
- Ki [3]: > 10000 nM
- Ki [4]: 350 nM
Structure (SMILES): Nc1nc2c(cnn2CCCc2ccccc2)c2nc(-c3ccco3)nn12 [SCH-63390]

Reference: ChEMBL document CHEMBL1135389, “7-Substituted 5-amino-2-(2-furyl)pyrazolo[4,3-e]-1,2,4-triazolo[1,5-c]pyrimidines as A2A adenosine receptor antagonists: a study on the importance of modifications at the side chain on the activity and solubility” (J Med Chem, 2002)
